Among the data in patent US9884063B2, “Amido-substituted azole compounds” (Bayer Pharma Aktiengesellschaft, priority 2014, dated 2018) are IC50 values, retold here.

As usually defined, the IC50 is the point on the concentration scale where inhibition reaches its midpoint. Read a low IC50 as greater potency.

Some results are limits rather than exact numbers.

The test concerns the target T1, TNKS1 (Homo sapiens, UniProt O95271).
T1 sequence (O95271 1-1327): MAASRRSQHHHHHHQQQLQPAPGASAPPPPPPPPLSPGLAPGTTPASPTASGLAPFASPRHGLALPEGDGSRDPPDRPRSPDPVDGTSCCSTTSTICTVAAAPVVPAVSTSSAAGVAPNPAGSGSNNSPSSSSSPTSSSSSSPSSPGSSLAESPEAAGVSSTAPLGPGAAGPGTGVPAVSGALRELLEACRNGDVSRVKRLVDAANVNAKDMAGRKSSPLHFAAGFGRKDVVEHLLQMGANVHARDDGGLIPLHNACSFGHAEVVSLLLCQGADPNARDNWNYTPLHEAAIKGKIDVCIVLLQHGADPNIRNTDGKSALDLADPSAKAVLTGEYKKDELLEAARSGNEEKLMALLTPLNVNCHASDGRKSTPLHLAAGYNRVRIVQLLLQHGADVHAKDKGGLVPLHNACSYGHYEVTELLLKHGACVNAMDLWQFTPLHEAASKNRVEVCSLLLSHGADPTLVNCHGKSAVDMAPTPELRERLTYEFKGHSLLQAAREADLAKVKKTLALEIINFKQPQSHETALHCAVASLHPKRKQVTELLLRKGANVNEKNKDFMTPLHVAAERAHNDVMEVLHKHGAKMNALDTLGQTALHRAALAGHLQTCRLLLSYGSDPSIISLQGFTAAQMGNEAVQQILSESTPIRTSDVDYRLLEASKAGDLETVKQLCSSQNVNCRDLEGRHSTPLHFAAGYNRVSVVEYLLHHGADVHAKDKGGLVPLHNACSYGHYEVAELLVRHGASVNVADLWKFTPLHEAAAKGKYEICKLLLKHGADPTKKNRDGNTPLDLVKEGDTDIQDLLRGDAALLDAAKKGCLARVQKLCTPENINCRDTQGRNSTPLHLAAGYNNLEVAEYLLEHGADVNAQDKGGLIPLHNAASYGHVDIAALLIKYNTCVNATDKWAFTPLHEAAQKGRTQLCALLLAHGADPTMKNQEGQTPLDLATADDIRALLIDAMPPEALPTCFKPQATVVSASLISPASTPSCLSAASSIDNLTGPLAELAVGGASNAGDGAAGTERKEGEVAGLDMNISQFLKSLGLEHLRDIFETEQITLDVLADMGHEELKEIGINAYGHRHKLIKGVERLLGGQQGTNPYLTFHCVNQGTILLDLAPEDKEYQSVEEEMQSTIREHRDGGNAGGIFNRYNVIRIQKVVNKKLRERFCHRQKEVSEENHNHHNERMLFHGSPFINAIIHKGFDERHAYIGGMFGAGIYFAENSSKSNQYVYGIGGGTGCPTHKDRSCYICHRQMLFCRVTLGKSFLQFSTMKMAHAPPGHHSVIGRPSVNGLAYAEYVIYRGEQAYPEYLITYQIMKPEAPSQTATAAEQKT
The test is described as follows: Modified TNKS1 Assay 2 (auto-parsylation, [3H]-NAD+ SPA). It is filed as biochemical. To be noted: 6 nM TNKS1, 96 well. The procedure: The potency of selected compounds according to the invention was assessed applying an modified in vitro inhibition assay. Here, the TNKS1 catalyzed NAD^+-dependent ribosylation of the enzyme itself (auto-parsylation) was detected using [^3H]-NAD^+ as substrate and applying the scintillation proximity assay (SPA) method to detect tritium-labeled, parsylated TNKS1. The intensity of the readout signal is proportional to the incorporated [^3H]-NAD^+. Inhibition of TNKS1 leads to a decreased incorporation of [^3H]-NAD^+ and consequently to a lower readout signal intensity. The concentration of a test compound which inhibits the enzyme activity by 50% (corresponds to half of the normed readout signal intensity) is reported as IC50.
The assay was conducted in a 96 well MTP format with the identical TNKS1 enzyme sample and NAD^+ sample as in the histone ribosylation assay with the following modifications: TNKS1 enzyme sample was diluted with a modified assay buffer (50 mM MES pH 7.0, 1 mM DTT, 0.01% Triton X-100) to a final concentration of 6 nM TNKS1 and 10×NAD^+ solution was diluted with the modified assay buffer (s. above) to a final 0.445×NAD^+ solution doped with 100 Bq/ul [^3H]-NAD^+[Catalog #NET443H050UC, Perkin Elmer, Waltham, Mass., USA]. Substrate solution (10 ul) was incubated with different test compound concentrations (2.5 ul in 10% DMSO in modified assay buffer) or control (2.5 ul 10% DMSO in modified assay buffer only) and enzyme (10 ul) over night at room temperature. Incorporated tritium was measured after addition of 50 ul SPA beads (1 mg/ml) [Catalog #RPNQ0095 20 mg/ml, Perkin Elmer, Waltham, Mass., USA; diluted 1:10 with Dulbecco's phosphate buffered saline, PBS Catalog #D8537, Sigma-Aldrich, Steinheim, Germany] and detection of the photon emission with a beta count plate reader [Wallac MicroBeta®, Perkin Elmer, Waltham, Mass., USA].
`O=C(Nc1ccc(NC(=O)c2ocnc2C(=O)NCCN2CCC(F)(F)CC2)cc1)c1ccc(F)cc1Cl` [Example 218, N^5-{4-[(2-chloro-4-fluorobenzoyl)amino]phenyl}-N^4-[2-(4,4-difluoropiperidin-1-yl)ethyl]-1,3-oxazole-4,5-dicarboxamide]: 70 nM corresponded to half-maximal inhibition (IC50).
With `CNC(=O)c1nc[nH]c1C(=O)Nc1ccc(NC(=O)c2ccncc2Cl)cc1` [Example 6, N^5-{4-[(3-chloroisonicotinoyl)amino]phenyl}-N^4-methyl-1H-imidazole-4,5-dicarboxamide] the figure was 150 nM.
Take `CC1CCN(CCNC(=O)c2[nH]cnc2C(=O)Nc2ccc(NC(=O)c3ccc(F)cc3)cc2)CC1` [Example 164, N^4-{4-[(4-fluorobenzoyl)amino]phenyl}-N^5-[2-(4-methylpiperidin-1-yl)ethyl]-1H-imidazole-4,5-dicarboxamide]: the half-inhibitory concentration (IC50) amounted to 40 nM.
To `CC(C)(CN1CCOCC1)NC(=O)c1[nH]cnc1C(=O)Nc1ccc(NC(=O)c2ccc(F)cc2Cl)cc1` [Example 207, N^4-{4-[(2-chloro-4-fluorobenzoyl)amino]phenyl}-N^5-[2-methyl-1-(morpholin-4-yl)propan-2-yl]-1H-imidazole-4,5-dicarboxamide] belongs 110 nM; to `CN(C)C(=O)c1nc[nH]c1C(=O)Nc1ccc(NC(=O)c2ccc(F)cc2Cl)cc1` [Example 24, N^5-{4-[(2-chloro-4-fluorobenzoyl)amino]phenyl}-N^4,N^4-dimethyl-1H-imidazole-4,5-dicarboxamide], 2600 nM; to `CNC(=O)c1nc[nH]c1C(=O)Nc1ccc(NC(=O)c2cc(F)c(F)cc2Cl)cc1` [Example 242, N^5-{4-[(2-chloro-4,5-difluorobenzoyl)amino]phenyl}-N^4-methyl-1H-imidazole-4,5-dicarboxamide], 20 nM.
With `CN1CCN(CCNC(=O)c2[nH]cnc2C(=O)Nc2ccc(NC(=O)c3ccccc3Cl)cc2)CC1` [Example 160, N^4-{4-[(2-chlorobenzoyl)amino]phenyl}-N^5-[2-(4-methylpiperazin-1-yl)ethyl]-1H-imidazole-4,5-dicarboxamide] the figure was 80 nM; with `CNC(=O)c1nc[nH]c1C(=O)Nc1ccc(NC(=O)c2cc(OCCN3CCN(C)CC3)ccc2Cl)cc1` [Example 124, N^5-[4-({2-chloro-5-[2-(4-methylpiperazin-1-yl)ethoxy]benzoyl}amino)phenyl]-N^4-methyl-1H-imidazole-4,5-dicarboxamide], above 10000 nM; with `CNC(=O)c1nc[nH]c1C(=O)Nc1ccc(NC(=O)c2ccc(OC(F)(F)F)cc2F)cc1` [Example 253, N^5-(4-{[2-fluoro-4-(trifluoromethoxy)benzoyl]amino}phenyl)-N^4-methyl-1H-imidazole-4,5-dicarboxamide], above 10000 nM.
Consider `O=C(Nc1ccc(NC(=O)c2nc[nH]c2C(=O)NCCCCN2CCCCC2)cc1)c1ccccc1Cl` [Example 189, N^4-{4-[(2-chlorobenzoyl)amino]phenyl}-N^5-[4-(piperidin-1-yl)butyl]-1H-imidazole-4,5-dicarboxamide], for which the concentration for half-maximal inhibition (IC50) worked out at 220 nM.
With `O=C(Nc1ccc(NC(=O)c2nc[nH]c2C(=O)NC2CC2)cc1)c1ccc(F)cc1` [Example 131, N^5-cyclopropyl-N^4-{4-[(4-fluorobenzoyl)amino]phenyl}-1H-imidazole-4,5-dicarboxamide] the figure was above 10000 nM.
With `O=C(Nc1ccc(NC(=O)c2nc[nH]c2C(=O)NCCN2CCCCC2)cc1)c1ccc(F)cc1Br` [Example 216, N^4-{4-[(2-bromo-4-fluorobenzoyl)amino]phenyl}-N^5-[2-(piperidin-1-yl)ethyl]-1H-imidazole-4,5-dicarboxamide] the figure was 7 nM; with `O=C(Nc1ccc(NC(=O)c2nc[nH]c2C(=O)NCCN2CCCC(F)C2)cc1)c1ccc(F)cc1Cl` (centres unmarked) [Example 226, N^4-{4-[(2-chloro-4-fluorobenzoyl)amino]phenyl}-N^5-[2-(3-fluoropiperidin-1-yl)ethyl]-1H-imidazole-4,5-dicarboxamide], 4 nM.
To `CNC(=O)c1nc[nH]c1C(=O)Nc1ccc(NC(=O)c2ccc(OCCN3CCN(C)CC3)cc2Cl)cc1` [Example 28, N^5-[4-({2-chloro-4-[2-(4-methylpiperazin-1-yl)ethoxy]benzoyl}amino)phenyl]-N^4-methyl-1H-imidazole-4,5-dicarboxamide] belongs 60 nM; to `CNC(=O)c1nc[nH]c1C(=O)Nc1ccc(NC(=O)c2ccccc2C)cc1` [Example 19, N^4-methyl-N^5-{4-[(2-methylbenzoyl)amino]phenyl}-1H-imidazole-4,5-dicarboxamide], 1800 nM.
Molecule `O=C(Nc1ccc(NC(=O)c2nc[nH]c2C(=O)NCCN2CCC2)cc1)c1ccc(F)cc1` [Example 199, N^5-[2-(azetidin-1-yl)ethyl]-N^4-{4-[(4-fluorobenzoyl)amino]phenyl}-1H-imidazole-4,5-dicarboxamide] came in with an IC50 of 60 nM.
To `CC(CNC(=O)c1[nH]cnc1C(=O)Nc1ccc(NC(=O)c2ccccc2Cl)cc1)N1CCCCC1` (centres unmarked) [Example 182, N^4-{4-[(2-chlorobenzoyl)amino]phenyl}-N^5-[2-(piperidin-1-yl)propyl]-1H-imidazole-4,5-dicarboxamide] belongs 10 nM; to `CNC(=O)c1nc[nH]c1C(=O)Nc1ccc(NC(=O)c2c(Cl)cccc2Cl)cc1` [Example 26, N^5-{4-[(2,6-dichlorobenzoyl)amino]phenyl}-N^4-methyl-1H-imidazole-4,5-dicarboxamide], 1700 nM.
Molecule `CNC(=O)c1nc[nH]c1C(=O)Nc1ccc(NC(=O)c2cc(OCCN3CCCCC3)ccc2Cl)cc1` [Example 125, N^5-[4-({2-chloro-5-[2-(piperidin-1-yl)ethoxy]benzoyl}amino)phenyl]-N^4-methyl-1H-imidazole-4,5-dicarboxamide] had an IC50 above 10000 nM.
To `CNC(=O)c1nc[nH]c1C(=O)Nc1ccc(NC(=O)c2ccc(F)cc2Cl)cc1` [Example 12, N^5-{4-[(2-chloro-4-fluorobenzoyl)amino]phenyl}-N^4-methyl-1H-imidazole-4,5-dicarboxamide] belongs 20 nM; to `COCCNC(=O)c1[nH]cnc1C(=O)Nc1ccc(NC(=O)c2ccc(F)cc2Cl)cc1` [Example 130, N^4-{4-[(2-chloro-4-fluorobenzoyl)amino]phenyl}-N^5-(2-methoxyethyl)-1H-imidazole-4,5-dicarboxamide], 30 nM; to `CNC(=O)c1nc[nH]c1C(=O)Nc1ccc(NC(=O)c2ccccc2O)cc1` [Example 239, N^5-{4-[(2-hydroxybenzoyl)amino]phenyl}-N^4-methyl-1H-imidazole-4,5-dicarboxamide], above 10000 nM.
With `CNC(=O)c1nc[nH]c1C(=O)Nc1ccc(NC(=O)c2ccc(OCCN(C)C)cc2Cl)cc1` [Example 25, N^5-[4-({2-chloro-4-[2-(dimethylamino)ethoxy]benzoyl}amino)phenyl]-N^4-methyl-1H-imidazole-4,5-dicarboxamide] the figure was 80 nM.
